From US20190315775A1, “MODIFIED […] AND PHARMACEUTICAL COMPOSITION HAVING SAME AS ACTIVE INGREDIENT” (KEIO UNIVERSITY, priority 2016, published 2019)
pIC50: −log10 of the molar value.

Columns and labels:
[1] = test system: HT-29 (human colon adenocarcinoma cells); assay: WST-1 proliferation assay (Example 10), HT-29; assay type: cell-based; settings: WST-1, 48 hours
Protocol: (§1) Cancer cells used herein were KMS34 (human myeloma cells), HeLa (human cervical cancer cells), HCT116 (human colon cancer cells; p53+/+), KATOIII (human stomach cancer cells), MDA-MB-231 (human breast cancer cells), HT-29 (human colon adenocarcinoma cells), PANC-1 (human pancreatic cancer cells), and Li-7 (human liver cancer cells). Proliferation assay of various cancer cells was performed by the WST-1 method (Cook, J A. & Mitchell, J B., Anal. Biochem., 179, 1-7, 1984) as follows. One μ1 each of PEG11(E)-TC11 and PEG11(O)-TC11 prepared in advance at target concentrations was added into each well of a 96-well microplate. Medium was added to the wells at 50 μl per well, and then mixed by tapping lightly the plate. Subsequently, KMS34 was prepared at a concentration of 5×10^5 cells/ml, and cells other than KMS34 were prepared at a concentration of 2×10^5 cells/ml. Cells were seeded at 50 μl per well (2.5×10^4 cells, 1×10^4 cells), and then incubated in a CO2 incubator (37° C., 5% CO2) for 48 hours. […] Subsequently, the plate was shaken with a plate reader for 1 minute, and then absorbance was measured at 450 nm. At this time, absorbance was also measured at 595 nm as a reference wavelength. The net absorbance was obtained by subtracting the absorbance at the reference wavelength from the absorbance at 450 nm.

[2] = test system: PANC-1 (human pancreatic cancer cells); assay: WST-1 proliferation assay (Example 10), PANC-1; assay type: cell-based; settings: WST-1, 48 hours
Protocol: as §1

[3] = test system: MDA-MB-231 (human breast cancer cells); assay: WST-1 proliferation assay (Example 10), MDA-MB-231; assay type: cell-based; settings: WST-1, 48 hours
Protocol: as §1

[4] = test system: KATOIII (human stomach cancer cells); assay: WST-1 proliferation assay (Example 10), KATOIII; assay type: cell-based; settings: KATO III, WST-1, 48 hours
Protocol: as §1

[5] = test system: HCT116 (human colon cancer cells; p53+/+); assay: WST-1 proliferation assay (Example 10), HCT116; assay type: cell-based; settings: HCT-116, WST-1, 48 hours
Protocol: as §1

[6] = test system: bone marrow stromal cell-derived normal cells (WT); assay: WST-1 proliferation assay (Example 11), normal cells; assay type: cell-based; settings: WST-1, 48 hours, FIG. 6
Protocol: (§2) Proliferation assay of cancer cells and normal cells was performed using WST-1 as follows. One μ1 each of PEG11(E)-TC11 and TC11 prepared at target concentrations was added to each well of a 96-well microplate. Medium was added to the wells at 50 μl per well, and then mixed by tapping lightly the plate. Next, high-risk MM cells (KMS34) prepared at 5×10^5 cells/ml and bone marrow stromal cell-derived normal cells (WT) prepared at 2×10^5 cells/ml were seeded at 50 μl (2.5×10^4 cells and 1×10^4 cells, respectively) per well, and then incubated in a CO2 incubator (37° C., 5% CO2) for 48 hours. Ten (10) μ1 each of cell proliferation reagent WST-1 (Roche) was added to each well after incubation, and then the resultants were mixed by lightly tapping the plate, followed by 1 hour of reaction in the CO2 incubator. Subsequently, the plate was shaken with a plate reader for 1 minute, and then absorbance was measured at 450 nm. At this time, absorbance was also measured at 595 nm as a reference wavelength. The net absorbance was obtained by subtracting the absorbance at the reference wavelength from the absorbance at 450 nm.

[7] = test system: high-risk MM cells (KMS34); assay: WST-1 proliferation assay (Example 11), KMS34; assay type: cell-based, human; settings: WST-1, 48 hours, FIG. 6
Protocol: as §2

[8] = test system: high-risk MM cells (MUM24); assay: Apoptosis induction, Annexin V/PI flow cytometry; assay type: cell-based, human; settings: MUM24, 10 μM, 24, 48 and 72 hours
Protocol: For observation of apoptosis induction caused by drugs, TC11 and PEG11(E)-TC11, one type of MM cells, MUM24 cells were treated with TC11 and PEG11(E)-TC11, Annexin V/PI staining was performed, and then analysis was conducted using a flow cytometer. More specifically, MUM24 was adjusted at 2.0×10^5 cells/mL, and then 1.95 mL each thereof was seeded to a 6-well plate. From the next day, TC11 and PEG11(E)-TC11 were added in such a manner that the final concentrations were 0, and 10 μM, and then cells were cultured at 37° C. for 24, 48, and 72 hours. Each cell (1.5 ml each) was collected, and then washed twice with Phosphate Buffered Saline (PBS, Sigma-Aldrich). Subsequently, each resultant was suspended again in a solution prepared by adding 5 μL of Annexin V-FITC and 5 μL of Propidium Iodide (PI) to 500 μL of 1×Binding Buffer in Annexin V-FITC Apoptosis Detection Kit (Bio Vision, California, USA), and then left to stand in the dark for 5 minutes. Fluorescence intensity was measured using BD™ LSR II Flow Cytometer (Becton, Dickinson and company, New Jersey, USA). Wavelengths to be measured were excitation wavelength of 488 nm, and fluorescence wavelengths of 530±15 nm for Annexin V-FITC and 610±10 nm for PI.

MUM24 cells = assay: Cell cycle, DNA content by flow cytometry; assay type: cell-based, human; settings: MUM24, 3 μM, 12, 24 and 36 hours
Protocol: The present inventors have reported that when HeLa cells of a human cervical cancer-derived cell line are treated with TC11, multipolarization and then multinucleation take place (Shiheido, H. et al., PLoS One, 7: e38878, 2012). The present inventors have also reported in the same paper α-tubulin and NPM1 as binding molecules for TC11. Next, intracellular DNA content was measured using flow cytometry in order to examine the effects of TC11 and its derivative, PEG11(E)-TC11 on cell cycle. More specifically, MUM24 was adjusted at 4.0×10^5 cells/mL, 1.95 mL each of MUM24 was seeded to a 6-well plate. From the next day, TC11 and PEG11(E)-TC11 were added in such a manner that the final concentrations were 0 and 3 μM, respectively, and then cells were cultured at 37° C. for 12, 24, and 36 hours. Each cell was collected, and then washed with PBS. 70% EtOH ([…]) was added and then the resultant was left to stand overnight at −30° C. After washing with PBS, […] of citrate-phosphate buffer was added, and then the resultant was left to stand at room temperature for 30 minutes, thereby eluting fragmented DNA. […] Fluorescence intensity was measured using BD FACS Calibur (Trademark) (Becton, Dickinson and company, New Jersey, USA). Wavelengths for measurement were an excitation wavelength of 488 nm, and a fluorescence wavelength of 610±10 nm.

SMILES | pIC50 [1] | pIC50 [2] | pIC50 [3] | pIC50 [4] | pIC50 [5] | Proliferation inhibitory activity against bone marrow stromal cell-derived normal cells (WT) [6] | Proliferation inhibitory activity against high-risk MM cells (KMS34) [7] | Apoptosis induction (Annexin V+/PI− and Annexin V+/PI+ fractions) [8] | Effect on cell cycle (proportion of tetraploid cells) (MUM24 cells)
COCCOCCOCCOCCOCCOCCOCCOCCOCCOCCOCCOCCOc1cc2c(cc1N)C(=O)N(c1c(C(C)C)cccc1C(C)C)C2=O [PEG11(O)-TC11] | 4.94 | 4.12 | 4.10 | 4.68 | 4.46 |  |  |  | 
COCCOCCOCCOCCOCCOCCOCCOCCOCCOCCOCCOCCC(=O)OCCOc1cc2c(cc1N)C(=O)N(c1c(C(C)C)cccc1C(C)C)C2=O [PEG11(E)-TC11] | 4.69 | 4.85 | 4.96 | 5.10 | 5.05 | no proliferation inhibitory activity | significant proliferation inhibitory activity | clearly induce apoptosis | induce cell death by causing G2/M phase arrest
CC(C)c1cccc(C(C)C)c1N1C(=O)c2ccc(N)cc2C1=O [TC11, 2-(2,6-di-isopropylphenyl)-5-amino-1H-isoindole-1,3-dione, reference compound] |  |  |  |  |  | no proliferation inhibitory activity | significant proliferation inhibitory activity | clearly induce apoptosis | induce cell death by causing G2/M phase arrest
